SMILES strings stand for the structures. Where a name gives a salt, the structure may show the parent alone.

From patent publication US9844549B2, “2-aminothiazole derivative or salt thereof” (ASTELLAS PHARMA INC., priority 2014, dated 2017) come the findings set out here.

For one test, the system named is rat isolated bladder. Nature of the test: Effect on electrical field stimulation-induced contraction in rat isolated bladder. Conditions: AUC of contraction, value before treatment = 100%, SD female rat bladder, read-out: Enhancement rate of extracted bladder contractions (% of pre). On the procedure: Test Example 2: Effect on Electrical Field Stimulation-Induced Contraction in Rat Isolated Bladder
As an effect on the nerve stimulation-dependent bladder contraction in in vitro, the effect of the Example compounds of the present invention in the electrical field stimulation-induced contraction of the rat isolated bladder was measured by the following method. That is, a bladder specimen having a width of about 2 mm and a length of about 10 mm in the longitudinal direction from the bladder isolated from a Sprague-Dawley (SD) female rat (Japan SLC, Inc.) was prepared. The prepared bladder specimen was suspended in an organ bath filled with 10 mL of a Krebs-Henseleite solution. The Krebs-Henseleite solution was aerated at 95% 02 and 5% CO2, and kept at 37° C. After carrying out stabilization at an initial tension of 1 g, the contraction was caused twice with 60 mM KCl. After stabilization of the specimen with a Krebs-Henseleite solution, the contraction was caused by carrying out electrical field stimulation at 20 V with an electrical stimulation device (Nihon Kohden) (a stimulation frequency of 8 Hz, a pulse width of 0.3 msec, and a stimulation time of 10 seconds). By repeating the transmural electrical stimulation at an interval of 2 minutes, a voltage was adjusted to obtain a contraction height of approximately 50% of the contractile response at 20 V. After the contraction by electrical field stimulation had been stabilized, 10 μL of the test substances dissolved in 100% DMSO in advance (final concentrations of 3 μM, 10 μM, and 30 μM) was added thereto. The test substances were cumulatively administered at the following concentrations after the low-concentration contractile response had been stabilized. The response was taken into a personal computer through a PowerLab (registered trademark) (AD Instruments, Inc.), and analyzed by LabChart (registered trademark) (AD Instruments, Inc.). When the area under the response (area under curve, AUC) in each contraction response was calculated and the value before treatment with the test substance was taken as 100%, the enhancement rate (% of pre) of the isolated bladder contractions after treatment with the test substance was calculated.

Another test deals with anesthetized rats. Nature of the test: Effect on pelvic nerve stimulation-induced elevation of intravesical pressure in anesthetized rats. The class given is in vivo. The following applies: Rattus norvegicus; 3 mg/kg intravenous; maximum effect within one hour; AUC, pre-treatment = 100%; SD female rats; read-out: Increase rate of intravesical pressure (% of pre). Here is the method:
Test Example 3: Effect on Pelvic Nerve Stimulation-Induced Elevation of Intravesical Pressure in Anesthetized Rats
The effect of the Example compounds of the present invention in the pelvic nerve electrical stimulation-induced elevation of intravesical pressure using rats as an action of nerve stimulation-dependent bladder contraction in vivo was measured by the following method. That is, SD female rats (Japan SLC, Inc.) were used and its lower abdomen was dissected at the midline under pentobarbital anesthesia (50 mg/kg ip). After ligating and cutting the ureter on both sides, a cannula (PE-50) for measuring the intravesical pressure was inserted into the bladder from the external urethral opening and fixed by a clip. After injecting about 200 μL of saline through the cannula that had been inserted into the bladder, the other side was connected to a pressure transducer to measure the intravesical pressure. Under a stereoscopic microscope observation, the pelvic nerve in the vicinity of the bladder was peeled and an electrode for nerve stimulation (unique Medical) was placed. The abdominal cavity was filled with mineral oil (MP BIOMEDICALS). After placing in a post-operative stabilization period, the pelvic nerve was subjected to electrical stimulation (stimulation voltage: 10 V, stimulation frequency: 8 Hz, pulse width: 0.3 msec, and stimulation time: 10 seconds) to elicit the elevation of intravesical pressure, using an electrical stimulator (Nihon Kohden). By repeating the electrical stimulation at an interval of 2 minutes while adjusting the voltage, the voltage was adjusted to elicit about 50% to 70% elevation of intravesical pressure elicited at 10 V. Thereafter, by repeating the electrical stimulation at an interval of 10 minutes, the increase in the intravesical pressure by electrical stimulation was stabilized three times or more, and the test substance (an administration amount of 3 mg/kg) was then administered from the catheter detained in the vein at a volume of 1 mL/kg, thus measuring an effect of the elevation of the intravesical pressure of the test substance for 1 hour. The test substance was dissolved in water supplemented with 10% DMSO and 10% Cremophor.
The response was applied to a personal computer through a PowerLab (registered trademark) and analyzed by LabChart (registered trademark). The AUC of each elevation of the intravesical pressure was calculated, the intravesical pressure elevation rate (% of pre) after the treatment with the test substance was calculated by taking an average value of the values measured three times before the treatment with the test substance as 100%, and the maximum effect during a period within one hour after administration of the compound was considered as the effect of the test substance.

On to `CC1CC[C@@H](C)N1Cc1sc(Nc2ncnc(N3CCN(CCC(=O)O)CC3)c2F)nc1-c1cc(F)cc(C(F)(F)F)c1` (stereo in doubt) [Example 8, sodium 3-(4-{6-[(5-{[(2R,5R)-2,5-dimethylpyrrolidin-1-yl]methyl}-4-[3-fluoro-5-(trifluoromethyl)phenyl]-1,3-thiazol-2-yl)amino]-5-fluoropyrimidin-4-yl}piperazin-1-yl)propanoate], for which, in the test on rat isolated bladder, the activity at 10 µM was 193%. In addition, in the test with anesthetized rats, the response vs control in vivo at 3 mg/kg worked out at 178%.

Turning to `COC[C@@H]1CN(c2ncnc(Nc3nc(-c4ccc(Cl)c(C(F)(F)F)c4)c(CN4CCC[C@H]4C)s3)c2F)CCN1CCC(=O)O` [Example 1, 3-[(2S)-4-{6-[(4-[4-chloro-3-(trifluoromethyl)phenyl]-5-{[(2R)-2-methylpyrrolidin-1-yl]methyl}-1,3-thiazol-2-yl)amino]-5-fluoropyrimidin-4-yl}-2-(methoxymethyl)piperazin-1-yl]propanoic acid trihydrochloride], the activity at 10 µM in the test on rat isolated bladder amounted to 120%. In addition, the response vs control in vivo at 3 mg/kg with anesthetized rats stood at 197%.

As for `Cc1nc(Nc2nc(-c3cc(F)cc(C(F)(F)F)c3)c(CN3CCC[C@H]3C)s2)cc(N2CCN(CCC(=O)O)CC2)n1` [Example 3, 3-(4-{6-[(4-[3-fluoro-5-(trifluoromethyl)phenyl]-5-{[(2R)-2-methylpyrrolidin-1-yl]methyl}-1,3-thiazol-2-yl)amino]-2-methylpyrimidin-4-yl}piperazin-1-yl)propanoic acid trihydrochloride], the activity at 10 µM in the test with rat isolated bladder came out at 136%. Further, in the test on anesthetized rats, the response vs control in vivo at 3 mg/kg worked out at 146%.

`Cc1nc(Nc2nc(-c3cc(F)cc(C(F)(F)F)c3)c(CN3[C@H](C)CC[C@H]3C)s2)c(F)c(N2CCN(CCC(=O)O)CC2)n1` [Example 4, sodium 3-(4-{6-[(5-{[(2R,5R)-2,5-dimethylpyrrolidin-1-yl]methyl}-4-[3-fluoro-5-(trifluoromethyl)phenyl]-1,3-thiazol-2-yl)amino]-5-fluoro-2-methylpyrimidin-4-yl}piperazin-1-yl)propanoate]: the activity at 10 µM in the test with rat isolated bladder is 127%. Moreover, in the test on anesthetized rats, the response vs control in vivo at 3 mg/kg came out at 178%.

`C[C@@H]1CCCN1Cc1sc(Nc2ncnc(N3CCN(CCC(=O)O)CC3)c2F)nc1-c1ccc(Cl)c(C(F)(F)F)c1` [Example 9, 3-(4-{6-[(4-[4-chloro-3-(trifluoromethyl)phenyl]-5-{[(2R)-2-methylpyrrolidin-1-yl]methyl}-1,3-thiazol-2-yl)amino]-5-fluoropyrimidin-4-yl}piperazin-1-yl)propanoic acid trihydrochloride]: the activity at 10 µM in the test with rat isolated bladder was determined as 187%. Also, in the test with anesthetized rats, the response vs control in vivo at 3 mg/kg worked out at 200%.

Regarding `COC[C@@H]1CN(c2ncnc(Nc3nc(-c4cc(F)cc(C(F)(F)F)c4)c(CN4CCC[C@H]4C)s3)c2F)CCN1CCC(=O)O` [Example 10, 3-[(2S)-4-{5-fluoro-6-[(4-[3-fluoro-5-(trifluoromethyl)phenyl]-5-{[(2R)-2-methylpyrrolidin-1-yl]methyl}-1,3-thiazol-2-yl)amino]pyrimidin-4-yl}-2-(methoxymethyl)piperazin-1-yl]propanoic acid trihydrochloride], in the test with rat isolated bladder, the activity at 10 µM worked out at 271%. In addition, the response vs control in vivo at 3 mg/kg in the test on anesthetized rats was 169%.

For the compound `C[C@@H]1CCCN1Cc1sc(Nc2ncnc(N3CCN(CCC(=O)O)CC3)c2F)nc1-c1cc(Cl)cc(C(F)(F)F)c1` [Example 11, 3-(4-{6-[(4-[3-chloro-5-(trifluoromethyl)phenyl]-5-{[(2R)-2-methylpyrrolidin-1-yl]methyl}-1,3-thiazol-2-yl)amino]-5-fluoropyrimidin-4-yl}piperazin-1-yl)propanoic acid trihydrochloride], in the test with rat isolated bladder, the activity at 10 µM worked out at 219%. Further, in the test on anesthetized rats, the response vs control in vivo at 3 mg/kg is 181%.

With `C[C@@H]1CCCN1Cc1sc(Nc2ncnc(N3CCC(OCC(=O)O)CC3)c2F)nc1-c1cc(F)cc(C(F)(F)F)c1` [Example 12, [(1-{5-fluoro-6-[(4-[3-fluoro-5-(trifluoromethyl)phenyl]-5-{[(2R)-2-methylpyrrolidin-1-yl]methyl}-1,3-thiazol-2-yl)amino]pyrimidin-4-yl}piperidin-4-yl)oxy]acetic acid dihydrochloride], the activity at 10 µM in the test with rat isolated bladder was 166%. Besides, the response vs control in vivo at 3 mg/kg in the test with anesthetized rats is 152%.

Consider `CC[C@@H]1CCCN1Cc1sc(Nc2ncnc(N3CCC(OCC(=O)O)CC3)c2F)nc1-c1cc(Cl)cc(C(F)(F)F)c1` [Example 13, [(1-{6-[(4-[3-chloro-5-(trifluoromethyl)phenyl]-5-{[(2R)-2-ethylpyrrolidin-1-yl]methyl}-1,3-thiazol-2-yl)amino]-5-fluoropyrimidin-4-yl}piperidin-4-yl)oxy]acetic acid dihydrochloride], for which the activity at 10 µM in the test on rat isolated bladder stood at 127%. Also, in the test on anesthetized rats, the response vs control in vivo at 3 mg/kg turned out to be 186%.

On to `C[C@@H]1CCCN1Cc1sc(Nc2cc(N3CCN(CCC(=O)O)CC3)ncn2)nc1-c1cc(F)cc(C(F)(F)F)c1` [Example 14], for which, in the test on rat isolated bladder, the activity at 10 µM amounted to 169%. The response vs control in vivo at 3 mg/kg in the test on anesthetized rats came out at 121%.

For `C[C@@H]1CCCN1Cc1sc(Nc2ncnc(N3CCN(CCC(=O)O)CC3)c2F)nc1-c1cc(F)cc(C(F)(F)F)c1` [Example 17], the activity at 10 µM in the test on rat isolated bladder is 199%. In addition, the response vs control in vivo at 3 mg/kg in the test with anesthetized rats stood at 144%.

With `Cc1nc(Nc2nc(-c3cc(F)cc(C(F)(F)F)c3)c(CN3CCC[C@H]3C)s2)c(F)c(N2CCN(CCC(=O)O)CC2)n1` [Example 18], the activity at 10 µM in the test on rat isolated bladder was 199%. Moreover, the response vs control in vivo at 3 mg/kg with anesthetized rats was found to be 153%.

Regarding `C[C@@H]1CCCN1Cc1sc(Nc2cc(N3CCN(CCC(=O)O)CC3)ccn2)nc1-c1cc(F)cc(C(F)(F)F)c1` [Example 19], in the test with rat isolated bladder, the activity at 10 µM turned out to be 161%. Moreover, the response vs control in vivo at 3 mg/kg with anesthetized rats turned out to be 125%.

Consider `COc1c(Nc2nc(-c3cc(F)cc(C(F)(F)F)c3)c(CN3CCC[C@H]3C)s2)ncnc1N1CCN(CCC(=O)O)CC1` [Example 91], for which the activity at 10 µM with rat isolated bladder came to 124%. In addition, the response vs control in vivo at 3 mg/kg with anesthetized rats was 144%.

As to `COc1c(F)cc(-c2nc(Nc3cc(N4CCN(CCC(=O)O)CC4)ncn3)sc2CN2CCC[C@H]2C)cc1C(F)(F)F` [Example 94], in the test with anesthetized rats, the response vs control in vivo at 3 mg/kg was 114%.

Consider `CCN(CC)Cc1sc(Nc2nc(C)nc(N3CCN(CCC(=O)O)CC3)c2F)nc1-c1cc(F)cc(C(F)(F)F)c1` [Example 97], for which the response vs control in vivo at 3 mg/kg with anesthetized rats was 143%.

Turning to `Cc1nc(Nc2nc(-c3cc(F)cc(C(F)(F)F)c3)c(CN(C)C(C)C)s2)c(F)c(N2CCN(CCC(=O)O)CC2)n1` [Example 98], the response vs control in vivo at 3 mg/kg with anesthetized rats came out at 139%.

Consider `Cc1nc(Nc2nc(-c3cc(F)cc(C(F)(F)F)c3)c(CN3[C@H](C)CC[C@H]3C)s2)cc(N2CCN(CCC(=O)O)CC2)n1` [Example 99], for which the response vs control in vivo at 3 mg/kg with anesthetized rats was found to be 121%.

In the case of `C[C@@H]1CC[C@@H](C)N1Cc1sc(Nc2nccc(N3CCN(CCC(=O)O)CC3)c2F)nc1-c1cc(F)cc(C(F)(F)F)c1` [Example 100], the response vs control in vivo at 3 mg/kg in the test with anesthetized rats is 145%.
